Patent publication US4410626A, “Process for the production of 7α-methoxycephalosporin derivatives” (Yamanouchi Pharmaceutical Co. Ltd., priority 1978, dated 1983)
≈ marks a conversion by molar mass, not a printed value.

What was measured:
Escherichia coli NIHJ = assay: Minimum inhibitory concentration, Escherichia coli; assay type: cell-based
Proteus mirabilis IMFOM9 = assay: Minimum inhibitory concentration, Proteus mirabilis; assay type: cell-based
Proteus vulgaris OXK US = assay: Minimum inhibitory concentration, Proteus vulgaris; assay type: cell-based
[1] = system: Salmonella enteritidis 1891; assay: Minimum inhibitory concentration, Salmonella enteritidis; assay type: cell-based; settings: Salmonella enterica
[2] = system: Klebsiella pnuemoniae ATCC 10031; assay: Minimum inhibitory concentration, Klebsiella pnuemoniae; assay type: cell-based; settings: ATCC10031
Shigella boydii IID 627 = assay: Minimum inhibitory concentration, Shigella boydii; assay type: cell-based; settings: IID627
[3] = system: Pseudomonas aeruginosa NCTC 10490; assay: Minimum inhibitory concentration, Pseudomonas aeruginosa; assay type: cell-based; settings: NCTC10490
Salmonella typhi H901W = assay: Minimum inhibitory concentration, Salmonella typhi; assay type: cell-based; settings: Salmonella enterica, read-out: Minimum inhibitory concentration
[4] = system: Staphylococcus aureus ATCC 6538F; assay: Minimum inhibitory concentration, Staphylococcus aureus; assay type: cell-based; settings: ATCC6538F
[5] = system: Bacillus subtilis ATCC 6633; assay: Minimum inhibitory concentration, Bacillus subtilis; assay type: cell-based; settings: ATCC6633
Salmonella gallinarum = assay: Antibacterial activity, plate disc method (diameter of inhibitory circle), Salmonella gallinarum; assay type: cell-based; settings: pH 8.0, plate disc method
Excerpt: (§1) 3. The antibacterial activities to Proteus mirabilis and Salmonella gallinarum are as follows:
(§2) Peptone 1%, yeast extract 0.1%, agaragar 1%, pH 8.0, plate disc method,
(§3) the numerical values are the diameters of inhibitory circles.

[6] = Solubility / hygroscopicity of the Na salt (physicochemical properties); settings: for Solubility in methanol, ethanol, ethyl acetate, butyl acetate and other organic solvents: (n-)butanol (not named for compound C)
Proteus mirabilis = assay: Antibacterial activity, plate disc method (diameter of inhibitory circle), Proteus mirabilis; assay type: cell-based; parameters: unit not given here; settings: pH 8.0, plate disc method
Excerpt: as §1, §2, §3

`COC(=Cc1ccc(O)cc1)C(=O)OCC1=C(C(=O)O)N2C(=O)[C@](NC(=O)CCC[C@@H](N)C(=O)O)(OC)[C@H]2SC1` [Comp. b, reference compound] showed an MIC (Escherichia coli NIHJ) of 12.5 µg/mL (≈ 21.6 µM), an MIC (Proteus mirabilis IMFOM9) of 6.25 µg/mL (≈ 10.8 µM) and an MIC (Proteus vulgaris OXK US) of 6.25 µg/mL (≈ 10.8 µM). The MIC [1] was 12.5 µg/mL (≈ 21.6 µM), the MIC [2] was 25 µg/mL (≈ 43.1 µM) and the MIC (Shigella boydii IID 627) was 50 µg/mL (≈ 86.3 µM). The MIC [3] was over 100 µg/mL, the MIC (Salmonella typhi H901W) was 50 µg/mL (≈ 86.3 µM) and the MIC [4] was 100 µg/mL (≈ 173 µM). It also gave an MIC [5] of 6.25 µg/mL (≈ 10.8 µM).

Molecule `CO[C@@]1(NC(=O)CCCC(=O)O)C(=O)N2C(C(=O)O)=C(COC(=O)/C=C/c3ccc(O)cc3)CS[C@@H]21` [Compound (D), 7β-(4-carboxybutyramido)-3-(p-hydroxycinnamoyloxymethyl)-7α-methoxy-Δ^3-cephem-4-carboxylic acid] has an MIC (Escherichia coli NIHJ) of 6.25 µg/mL (≈ 12 µM), an MIC (Proteus mirabilis IMFOM9) of 6.25 µg/mL (≈ 12 µM) and an MIC (Proteus vulgaris OXK US) of 3.13 µg/mL (≈ 6.01 µM). For the same molecule, the MIC [1] was 25 µg/mL (≈ 48 µM), the “diameter of inhibitory circle” value (Salmonella gallinarum; 100 γ/ml) was 11.5 and the “diameter of inhibitory circle” value (Salmonella gallinarum; 500 γ/ml) was 16.2. For the same molecule, the Hygroscopicity [6] was “Very hygroscopic”, the “Solubility in ethyl acetate, butyl acetate, n-butanol and other organic solvents” value ([6]; ethyl acetate, butyl acetate, n-butanol and other organic solvents) was “scarcely soluble” and the “Solubility in methanol and ethanol” value ([6]; methanol and ethanol) was “slightly soluble”. For the same molecule, the Solubility in water [6] was “Easily soluble”, the MIC [2] was 12.5 µg/mL (≈ 24 µM) and the “diameter of inhibitory circle” value (Proteus mirabilis; 100 γ/ml) was 18.0. The “diameter of inhibitory circle” value (Proteus mirabilis; 500 γ/ml) was 27.7, the MIC (Shigella boydii IID 627) was 12.5 µg/mL (≈ 24 µM) and the MIC [3] was over 100 µg/mL. For the same molecule, the MIC (Salmonella typhi H901W) was 25 µg/mL (≈ 48 µM), the MIC [4] was 50 µg/mL (≈ 96.1 µM) and the MIC [5] was 100 µg/mL (≈ 192 µM).

With `CO[C@@]1(NC(=O)CCCC(=O)O)C(=O)N2C(C(=O)O)=C(COC(=O)/C=C/c3ccc(OS(=O)(=O)O)cc3)CS[C@@H]21` [Compound (B), 7β-(4-Carboxybutyramido)-7α-methoxy-3-(p-sulfooxycinnamoyloxymethyl)-Δ^3-cephem-4-carboxylic acid] the MIC (Escherichia coli NIHJ) was 6.25 µg/mL (≈ 10.4 µM), the MIC (Proteus mirabilis IMFOM9) was 12.5 µg/mL (≈ 20.8 µM) and the MIC (Proteus vulgaris OXK US) was 6.25 µg/mL (≈ 10.4 µM). The MIC [1] was 50 µg/mL (≈ 83.3 µM), the “diameter of inhibitory circle” value (Salmonella gallinarum; 100 γ/ml) was 14.2 and the “diameter of inhibitory circle” value (Salmonella gallinarum; 500 γ/ml) was 18.3. The “Solubility in methanol, ethanol, ethyl acetate, butyl acetate and other organic solvents” value (“Solubility in methanol, ethanol” for short) ([6]; ethyl acetate, butyl acetate) was “scarcely soluble”, the Solubility in water [6] was “Easily soluble” and the MIC [2] was 25 µg/mL (≈ 41.6 µM). For the same molecule, the “diameter of inhibitory circle” value (Proteus mirabilis; 100 γ/ml) was 17.6, the “diameter of inhibitory circle” value (Proteus mirabilis; 500 γ/ml) was 27.2 and the MIC (Shigella boydii IID 627) was 25 µg/mL (≈ 41.6 µM). The MIC [3] was over 100 µg/mL, the MIC (Salmonella typhi H901W) was 50 µg/mL (≈ 83.3 µM) and the MIC [4] was 100 µg/mL (≈ 167 µM). The MIC [5] was 100 µg/mL (≈ 167 µM).

With `CO[C@@]1(NC(=O)CCC[C@@H](N)C(=O)O)C(=O)N2C(C(=O)O)=C(COC(=O)/C=C/c3ccc(O)cc3)CS[C@@H]21` [Compound (C), 7β-(D-5-amino-5-carboxyvaleramido)-3-(p-hydroxycinnamoyloxymethyl)-7α-methoxy-Δ^3-cephem-4-carboxylic acid] the MIC (Escherichia coli NIHJ) was 3.13 µg/mL (≈ 5.7 µM), the MIC (Proteus mirabilis IMFOM9) was 0.78 µg/mL (≈ 1.42 µM) and the MIC (Proteus vulgaris OXK US) was 0.78 µg/mL (≈ 1.42 µM). The MIC [1] was 1.56 µg/mL (≈ 2.84 µM), the “diameter of inhibitory circle” value (Salmonella gallinarum; 100 γ/ml) was 15.1 and the “diameter of inhibitory circle” value (Salmonella gallinarum; 500 γ/ml) was 20.0. The “Solubility in methanol, ethanol” value ([6]; ethyl acetate, butyl acetate) was “scarcely soluble”, the Solubility in water [6] was “Easily soluble” and the MIC [2] was 3.13 µg/mL (≈ 5.7 µM). The “diameter of inhibitory circle” value (Proteus mirabilis; 100 γ/ml) was 22.0, the “diameter of inhibitory circle” value (Proteus mirabilis; 500 γ/ml) was 27.8 and the MIC (Shigella boydii IID 627) was 6.25 µg/mL (≈ 11.4 µM). The MIC [3] was over 100 µg/mL, the MIC (Salmonella typhi H901W) was 12.5 µg/mL (≈ 22.7 µM) and the MIC [4] was 50 µg/mL (≈ 91 µM). For the same molecule, the MIC [5] was 3.13 µg/mL (≈ 5.7 µM).

Work on `CO[C@@]1(NC(=O)CCC[C@@H](N)C(=O)O)C(=O)N2C(C(=O)O)=C(COC(=O)/C=C/c3ccc(OS(=O)(=O)O)cc3)CS[C@@H]21` [Compound (A), 7β-(D-5-Amino-5-carboxyvaleramido)-7α-methoxy-3-(p-sulfooxycinnamoyloxymethyl)-Δ^3-cephem-4-carboxylic acid] yielded an MIC (Escherichia coli NIHJ) of 6.25 µg/mL (≈ 9.93 µM), an MIC (Proteus mirabilis IMFOM9) of 0.78 µg/mL (≈ 1.24 µM) and an MIC (Proteus vulgaris OXK US) of 0.39 µg/mL (≈ 0.619 µM). For the same molecule, the MIC [1] was 6.25 µg/mL (≈ 9.93 µM), the “diameter of inhibitory circle” value (Salmonella gallinarum; 100 γ/ml) was 17.0 and the “diameter of inhibitory circle” value (Salmonella gallinarum; 500 γ/ml) was 21.5. For the same molecule, the “Solubility in methanol, ethanol” value ([6]; ethyl acetate, butyl acetate) was “scarcely”, the Solubility in water [6] was “Easily soluble” and the MIC [2] was 25 µg/mL (≈ 39.7 µM). The “diameter of inhibitory circle” value (Proteus mirabilis; 100 γ/ml) was 22.3, the “diameter of inhibitory circle” value (Proteus mirabilis; 500 γ/ml) was 28.7 and the MIC (Shigella boydii IID 627) was 6.25 µg/mL (≈ 9.93 µM). For the same molecule, the MIC [3] was over 100 µg/mL, the MIC (Salmonella typhi H901W) was 3.13 µg/mL (≈ 4.97 µM) and the MIC [4] was 100 µg/mL (≈ 159 µM). For the same molecule, the MIC [5] was 12.5 µg/mL (≈ 19.9 µM).

In the case of `CO[C@@]1(NC(=O)CCCC(N)C(=O)O)C(=O)N2C(C(=O)O)=C(CSc3nnnn3C)CS[C@@H]21` (some centres unmarked) [Y-G19Z-G, 7(5-amino-5-carboxyvaleramido)-7-methoxy-3-(1-methyl-1H-tetrazol-5-yl)thimethyl-Δ^3cephem-4-carboxylic acid, reference compound], the “diameter of inhibitory circle” value (Salmonella gallinarum; 100 γ/ml) is reported as 18.5, the “diameter of inhibitory circle” value (Salmonella gallinarum; 500 γ/ml) is reported as 21.5 and the “diameter of inhibitory circle” value (Proteus mirabilis; 100 γ/ml) is reported as 21.6. The “diameter of inhibitory circle” value (Proteus mirabilis; 500 γ/ml) was 27.0.

`COC(=Cc1ccc(OS(=O)(=O)O)cc1)C(=O)OCC1=C(C(=O)O)N2C(=O)[C@](NC(=O)CCC[C@@H](N)C(=O)O)(OC)[C@H]2SC1` [Comp. a, reference compound] showed an MIC (Escherichia coli NIHJ) of 25 µg/mL (≈ 37.9 µM), an MIC (Proteus mirabilis IMFOM9) of 6.25 µg/mL (≈ 9.47 µM) and an MIC (Proteus vulgaris OXK US) of 1.56 µg/mL (≈ 2.36 µM). It also gave an MIC [1] of 25 µg/mL (≈ 37.9 µM), an MIC [2] of 50 µg/mL (≈ 75.8 µM) and an MIC (Shigella boydii IID 627) of 25 µg/mL (≈ 37.9 µM). The MIC [3] was over 100 µg/mL, the MIC (Salmonella typhi H901W) was 25 µg/mL (≈ 37.9 µM) and the MIC [4] was over 100 µg/mL. It also gave an MIC [5] of 50 µg/mL (≈ 75.8 µM).

For `CO[C@@]1(NC(=O)CCCC(=O)O)C(=O)N2C(C(=O)O)=C(CSc3nnnn3C)CS[C@@H]21` [Y-G19Z-GG, 7(4-carboxybutyramido)-7-methoxy-3-(1-methyl-1H-tetrazol-5-yl)thio-methylΔ^3cephem-4-carboxylic acid, reference compound], the “diameter of inhibitory circle” value (Salmonella gallinarum; 500 γ/ml) was 16.0 and the “diameter of inhibitory circle” value (Proteus mirabilis; 500 γ/ml) was 19.0.
